Results published in US20230312643A1, “PEPTIDE DERIVATIVE WITH COLLAGENASE INHIBITORY ACTIVITY, AND USE THEREOF” (SUNMARINE BIOTECH, priority 2020, published 2023).

What was measured:
collagenase = assay: Collagenase inhibitory activity (EnzChek Gelatinase/Collagenase Assay Kit, DQ collagen); assay type: biochemical
Description: Collagenase inhibitory activity was performed by purchasing EnzChek® Gelatinase/Collagenase Assay Kit (250-2000 Assays) reagent from Invitrogen. First, DQ collagen stock solution (1 mg/ml) was prepared by adding 1.0 ml of DDW to 1 mg DQ collagen vial. The 18 ml of DDW was added to 2 ml of 10× reaction buffer, so as to dilute reaction buffer. Then, a collagenase enzyme reagent was prepared, and diluted with reaction buffer to a final concentration of 0.2 U/ml as working solution. Three samples of 50 ? each were prepared in a 96-well plate. The 30 ? of reaction buffer was added to 20 ? of DQ collagen and sample blank, and 30 ? of working solution was added to a sample, which were then left in a light-blocked state at room temperature for about one to two hours, and then fluorescence intensity was measured at excitation wavelength 485 nm and emission wavelength 535 nm using ELISA plate reader (VICTOR X3™, PerkinElmer, US).
As a positive control, copper peptide (Comparative Example 12), which is a representative peptide widely used as a raw material for functional cosmetics, was prepared at the same concentration and used. Copper peptide has excellent skin regeneration ability and thus is used as a raw material to suppress skin aging by promoting wound healing, strengthening skin elasticity, and increasing subcutaneous fat layers.

[1] = HS68 cytotoxicity test (MTS cell viability); assay type: cell-based; settings: human, HS68 cells (skin fibroblasts)
Description: Skin fibroblast HS68 cells were used. The medium was DMEM high glucose (SH30243.01, HyClone™, Logan, UT, USA) medium containing 10% fetal bovine serum (FBS, Lonza, Valais, Switzerland) medium. The cell lines were cultured in an incubator adjusted to 95% humidity, 5% CO2 and 37° C., and at this time, a medium antibiotic (Penicillin streptomycin, Gibco, Calif., USA) was used to suppress contamination or proliferation of microorganisms.
(§1) Cell viability was measured using MTS (CellTiter 96® AQueous One Solution Cell Proliferation Assay, Promega, USA) reagent. The cells were divided at a concentration of 1×10^4 cells/well in a 96-well plate and then stabilized for 24 hours in an incubator controlled to 95% humidity, 5% CO2 and 37° C. After that, the samples were treated for each concentration and cultured for 24 hours in an incubator controlled to 95% j humidity, 5% CO2 and 37° C. After the medium was removed, 9 ml of medium (DMEM high, free FBS) was added to 1 ml of the reagent and diluted, and then 100 ul of the diluted solution was treated per well. After the reaction at 37° C. for 60 minutes, absorbance was measured at 490 nm with microplate reader (Molecular Devices, VersaMax ELISA Microplate Reader, USA). Cell viability was represented by absorbance of a sample-treated group compared to a control group not treated with the sample.

[2] = HaCaT cytotoxicity test (MTS cell viability); assay type: cell-based; settings: human, HaCaT cells (skin epidermal cells)
Description: HaCaT cells, skin epidermal cells (derived from human), were used. The medium was DMEM low (SH30021.01, HyClone™, Logan, UT, USA) medium containing 10% fetal bovine serum (FBS, Lonza, Valais, Switzerland) medium. The cell lines were cultured in an incubator adjusted to 95% humidity, 5% CO2 and 37° C., and at this time, a medium antibiotic (Penicillin streptomycin, Gibco, Calif., USA) was used to suppress contamination or proliferation of microorganisms. When the cells covered the dish about 80%, the cells were washed with phosphated-buffered saline-EDTA (PBS-EDTA), and then the cells attached to the bottom of the dish were detached by treating with 1 ml of 0.05% trypsin EDTA, and subjected to subculture. The medium was exchanged every 48 hours to culture the cells.
as §1, with “each concentration (table 1) and cultured” for “each concentration and cultured”, “to 95% humidity, 5%” for “to 95% j humidity, 5%”, “medium (DMEM low, free FBS)” for “medium (DMEM high, free FBS)”

elastase = molecular target: T1, elastase (Sus scrofa, UniProt P00772); assay: Elastase inhibitory activity (EnzChek Elastase Assay Kit, DQ elastin); assay type: biochemical
T1 construct: purchased Invitrogen
Description: Elastase inhibitory activity was performed by purchasing EnzChek® Elastase Assay Kit (600 Assays) reagent from Invitrogen. First, DQ elastin stock solution (1 mg/ml) was prepared by adding 1.0 ml of DDW to 1 mg DQ elastin vial. The 18 ml of DDW was added to 2 ml of 10× reaction buffer, so as to dilute reaction buffer. Then, an elastase enzyme reagent was prepared, and diluted with reaction buffer to a final concentration of 0.2 U/ml as working solution. Three samples of 50 ? each were prepared in a 96-well plate. The 50 ? of reaction buffer was added to 50 ? of DQ elastin and sample blank, and 50 ? of working solution was added to a sample, which were then left in a light-blocked state at room temperature for about one hour, and then fluorescence intensity was measured at excitation wavelength 505 nm and emission wavelength 515 nm using ELISA plate reader (VICTOR X3™, PerkinElmer, US).
Copper peptide (Comparative Example 12) and EGCg (Comparative Example 13), which is widely used as a raw material for functional cosmetics, were prepared at the same concentration and used as a positive control.
EGCg (epigallocatechin gallate) is a kind of polyphenol, which is an extract of green tea leaves, and is used as a cosmetic raw material for anti-oxidation, inflammation reduction, and wrinkle alleviation, and Copper peptide is used as a raw material for promoting wound healing, strengthening skin elasticity, and increasing subcutaneous fat layer to suppress skin aging due to excellent skin regeneration ability.

T1 sequence (P00772 27-266): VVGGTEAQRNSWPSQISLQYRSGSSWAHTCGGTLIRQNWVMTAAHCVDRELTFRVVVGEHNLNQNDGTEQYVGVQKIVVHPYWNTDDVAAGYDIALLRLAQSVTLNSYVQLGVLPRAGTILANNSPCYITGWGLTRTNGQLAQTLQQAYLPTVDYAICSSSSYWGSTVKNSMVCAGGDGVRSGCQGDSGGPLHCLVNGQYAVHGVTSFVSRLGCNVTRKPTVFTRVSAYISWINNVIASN

**Q.** For NC(=O)C[C@H](NC(=O)CNC(=O)[C@@H]1CCCN1)C(=O)O [PGN, Pro-Gly-Asn, reference compound], which Collagenase inhibitory activity (collagenase; 0.05 mg/ml) is on record?
**A.** Its Collagenase inhibitory activity is 1.6 ± 3.3%.

**Q.** What about the Collagenase inhibitory activity (collagenase; 0.1 mg/ml) of the same molecule?
**A.** The Collagenase inhibitory activity was 4.7 ± 3.9%.

**Q.** And the Collagenase inhibitory activity (collagenase; 0.5 mg/ml)?
**A.** Its Collagenase inhibitory activity is 11.2 ± 6.2%.

**Q.** What about the Collagenase inhibitory activity (collagenase; 1 mg/ml) of the same molecule?
**A.** Its Collagenase inhibitory activity is 13.1%.

**Q.** What about the “collagenase inhibitory activity IC50” value (collagenase; FIGS. 5 and 6) of the same molecule?
**A.** Its value is 1577 µg/mL.

**Q.** What about the viability at 24 h, 1 µg/mL ([1]; HS68, 1 μg/ml) of the same molecule?
**A.** Its viability at 24 h, 1 µg/mL is 104 ± 3.9%.

**Q.** And the viability at 24 h, 10 µg/mL ([1]; HS68, 10 μg/ml)?
**A.** The viability at 24 h, 10 µg/mL was 117 ± 11.5%.

**Q.** And the viability at 24 h, 50 µg/mL ([1]; HS68, 50 μg/ml)?
**A.** Its viability at 24 h, 50 µg/mL is 128 ± 2.2%.

**Q.** What about the viability at 24 h, 100 µg/mL ([1]; HS68, 100 μg/ml) of the same molecule?
**A.** Its viability at 24 h, 100 µg/mL is 130.1 ± 0.1%.

**Q.** And the viability at 24 h, 1 µg/mL ([2]; 1 μg/ml)?
**A.** The viability at 24 h, 1 µg/mL was 118 ± 3.1%.

**Q.** What about the viability at 24 h, 10 µg/mL ([2]; 10 μg/ml) of the same molecule?
**A.** Its viability at 24 h, 10 µg/mL is 129 ± 2.8%.

**Q.** And the viability at 24 h, 50 µg/mL ([2]; 50 μg/ml)?
**A.** Its viability at 24 h, 50 µg/mL is 125 ± 7.6%.

**Q.** And the viability at 24 h, 100 µg/mL ([2]; 100 μg/ml)?
**A.** The viability at 24 h, 100 µg/mL was 128 ± 4.1%.

**Q.** And the inhibition at 20 µg/mL (elastase; 0.02 mg/ml)?
**A.** The inhibition at 20 µg/mL was 1.8 ± 0.6%.

**Q.** And the inhibition at 40 µg/mL (elastase; 0.04 mg/ml)?
**A.** The inhibition at 40 µg/mL was 2.8 ± 1.2%.

**Q.** And the inhibition at 60 µg/mL (elastase; 0.06 mg/ml)?
**A.** The inhibition at 60 µg/mL was 6.1 ± 1.9%.

**Q.** And the inhibition at 100 µg/mL (elastase; 0.1 mg/ml)?
**A.** Its inhibition at 100 µg/mL is 7.5 ± 3.2%.

**Q.** And the inhibition at 1000 µg/mL (elastase; 1 mg/ml)?
**A.** The inhibition at 1000 µg/mL was 7.5%.

**Q.** And the IC50 (elastase; FIGS. 8 and 9)?
**A.** The IC50 was 384 µM.
